Measured values from ChEMBL document CHEMBL6134849, “A Water-Soluble Aggregation-Induced Emission Photosensitizer with Intrinsic Antibacterial Activity as an Antiplanktonic and Antibiofilm Therapeutic Agent” (J Med Chem, 2025).
Activity calls are given as the source filed them.

What was measured:
[1] = Induction of type-I ROS generation in PBS assessed as increase in singlet oxygen by measuring increase in SOSG fluorescence intensity at 10 uM irradiated with 660 nm 60 mW/cm2 light for 15 mins by SOSG probe based plate reader analysis; type: functional
Lipopolysaccharide (LPS) = experiment: Displacement of BODIPY-TR Cadaverine from Pseudomonas aeruginosa lipopolysaccharide (LPS) assessed as increase in fluorescence intensity at 10 uM incubated for 30 mins by fluorescence based plate reader analysis
[2] = Induction of type-II ROS generation in PBS assessed as increase in nonspecific ROS by measuring increase in DHR123 fluorescence intensity at 10 uM irradiated with 660 nm 60 mW/cm2 light for 15 mins by DHR123 probe based plate reader analysis; type: functional
[3] = Induction of type-I ROS generation in PBS assessed as increase in nonspecific ROS by measuring increase in DHR123 fluorescence intensity at 10 uM irradiated with 660 nm 60 mW/cm2 light for 15 mins by DHR123 probe based plate reader analysis; type: functional
[4] = Induction of type-II ROS generation in PBS assessed as increase in singlet oxygen by measuring increase in SOSG fluorescence intensity at 10 uM irradiated with 660 nm 60 mW/cm2 light for 15 mins by SOSG probe based plate reader analysis; type: functional
[5] = Induction of […] ROS generation in PBS assessed as increase in hydroxyl radical by measuring increase in HPF fluorescence intensity at 10 uM irradiated with 660 nm 60 mW/cm2 light for 15 mins by HPF probe based plate reader analysis; type: functional
Lipoteichoic acid = experiment: Displacement of BODIPY-TR Cadaverine from Staphylococcus aureus lipoteichoic acid (LTA) assessed as increase in fluorescence intensity at 10 uM incubated for 30 mins by fluorescence based plate reader analysis
[6] = Induction of type-I ROS generation in PBS assessed as increase in hydroxyl radical by measuring increase in HPF fluorescence intensity at 10 uM irradiated with 660 nm 60 mW/cm2 light for 15 mins by HPF probe based plate reader analysis; type: functional

Measured: Activity

CC[n+]1c(/C=C/c2ccc(-c3ccc(N(c4ccc(OCCC[N+](C)(C)C)cc4)c4ccc(OCCC[N+](C)(C)C)cc4)cc3)s2)sc2ccccc21
active: all assays above
